In patent US9682994B2, “Inhibitors of retroviral replication” (The Scripps Research Institute, priority 2011, dated 2017):
Entries after “also recorded” stand apart in the source; their conditions may differ.

Experiments:
[1] = test system: basic region Tat mutant (Tat-1 BRM); experiment: Biotinylated compound pull-down of basic region Tat mutant; assay type: binding, HIV-1
Description: HEK293T cells were transfected with flag-tagged Tat 101 a.a. (Tat-F-101-wt), a shorter Tat version with 86 a.a. (Tat-F-86-wt), Tat 86 a.a. mutated in the basic domain (Tat-F-BRM), flag-tagged CDK11 (CDK11-F), flag-tagged 9G8 (9G8-F) and empty vector control.
DYNABEADS® MYONE™ Streptavidin T1 (12.5 μl slurry) (Invitrogen) were pre-saturated with 1.88 μl of 1 mM in DMSO of Biotin alone or Bio-dCA and incubated for 1 h at room temperature with orbital rocking, plus an additional 30 min with Biotin (0.63 μl of 1 mM in DMSO). Protein extracts (250 μg per sample) were incubated with the pre-saturated beads in lysis buffer supplemented with 0.1% BSA for 1 h at 4° C. with orbital rocking. After incubation, the beads were washed three times with lysis buffer.

[2] = target: T1, DNA-dependent protein kinase (DNA-PK) catalytic subunit (Homo sapiens, UniProt P78527); experiment: Bio-CA pull-down / mass spectrometry, DNA-PK; assay type: binding
T1 construct: endogenous in cells; host or cells: P42 (HeLa-CD4-LTR-LacZ) cells; HEK293T cells
T1 sequence (P78527 whole entry): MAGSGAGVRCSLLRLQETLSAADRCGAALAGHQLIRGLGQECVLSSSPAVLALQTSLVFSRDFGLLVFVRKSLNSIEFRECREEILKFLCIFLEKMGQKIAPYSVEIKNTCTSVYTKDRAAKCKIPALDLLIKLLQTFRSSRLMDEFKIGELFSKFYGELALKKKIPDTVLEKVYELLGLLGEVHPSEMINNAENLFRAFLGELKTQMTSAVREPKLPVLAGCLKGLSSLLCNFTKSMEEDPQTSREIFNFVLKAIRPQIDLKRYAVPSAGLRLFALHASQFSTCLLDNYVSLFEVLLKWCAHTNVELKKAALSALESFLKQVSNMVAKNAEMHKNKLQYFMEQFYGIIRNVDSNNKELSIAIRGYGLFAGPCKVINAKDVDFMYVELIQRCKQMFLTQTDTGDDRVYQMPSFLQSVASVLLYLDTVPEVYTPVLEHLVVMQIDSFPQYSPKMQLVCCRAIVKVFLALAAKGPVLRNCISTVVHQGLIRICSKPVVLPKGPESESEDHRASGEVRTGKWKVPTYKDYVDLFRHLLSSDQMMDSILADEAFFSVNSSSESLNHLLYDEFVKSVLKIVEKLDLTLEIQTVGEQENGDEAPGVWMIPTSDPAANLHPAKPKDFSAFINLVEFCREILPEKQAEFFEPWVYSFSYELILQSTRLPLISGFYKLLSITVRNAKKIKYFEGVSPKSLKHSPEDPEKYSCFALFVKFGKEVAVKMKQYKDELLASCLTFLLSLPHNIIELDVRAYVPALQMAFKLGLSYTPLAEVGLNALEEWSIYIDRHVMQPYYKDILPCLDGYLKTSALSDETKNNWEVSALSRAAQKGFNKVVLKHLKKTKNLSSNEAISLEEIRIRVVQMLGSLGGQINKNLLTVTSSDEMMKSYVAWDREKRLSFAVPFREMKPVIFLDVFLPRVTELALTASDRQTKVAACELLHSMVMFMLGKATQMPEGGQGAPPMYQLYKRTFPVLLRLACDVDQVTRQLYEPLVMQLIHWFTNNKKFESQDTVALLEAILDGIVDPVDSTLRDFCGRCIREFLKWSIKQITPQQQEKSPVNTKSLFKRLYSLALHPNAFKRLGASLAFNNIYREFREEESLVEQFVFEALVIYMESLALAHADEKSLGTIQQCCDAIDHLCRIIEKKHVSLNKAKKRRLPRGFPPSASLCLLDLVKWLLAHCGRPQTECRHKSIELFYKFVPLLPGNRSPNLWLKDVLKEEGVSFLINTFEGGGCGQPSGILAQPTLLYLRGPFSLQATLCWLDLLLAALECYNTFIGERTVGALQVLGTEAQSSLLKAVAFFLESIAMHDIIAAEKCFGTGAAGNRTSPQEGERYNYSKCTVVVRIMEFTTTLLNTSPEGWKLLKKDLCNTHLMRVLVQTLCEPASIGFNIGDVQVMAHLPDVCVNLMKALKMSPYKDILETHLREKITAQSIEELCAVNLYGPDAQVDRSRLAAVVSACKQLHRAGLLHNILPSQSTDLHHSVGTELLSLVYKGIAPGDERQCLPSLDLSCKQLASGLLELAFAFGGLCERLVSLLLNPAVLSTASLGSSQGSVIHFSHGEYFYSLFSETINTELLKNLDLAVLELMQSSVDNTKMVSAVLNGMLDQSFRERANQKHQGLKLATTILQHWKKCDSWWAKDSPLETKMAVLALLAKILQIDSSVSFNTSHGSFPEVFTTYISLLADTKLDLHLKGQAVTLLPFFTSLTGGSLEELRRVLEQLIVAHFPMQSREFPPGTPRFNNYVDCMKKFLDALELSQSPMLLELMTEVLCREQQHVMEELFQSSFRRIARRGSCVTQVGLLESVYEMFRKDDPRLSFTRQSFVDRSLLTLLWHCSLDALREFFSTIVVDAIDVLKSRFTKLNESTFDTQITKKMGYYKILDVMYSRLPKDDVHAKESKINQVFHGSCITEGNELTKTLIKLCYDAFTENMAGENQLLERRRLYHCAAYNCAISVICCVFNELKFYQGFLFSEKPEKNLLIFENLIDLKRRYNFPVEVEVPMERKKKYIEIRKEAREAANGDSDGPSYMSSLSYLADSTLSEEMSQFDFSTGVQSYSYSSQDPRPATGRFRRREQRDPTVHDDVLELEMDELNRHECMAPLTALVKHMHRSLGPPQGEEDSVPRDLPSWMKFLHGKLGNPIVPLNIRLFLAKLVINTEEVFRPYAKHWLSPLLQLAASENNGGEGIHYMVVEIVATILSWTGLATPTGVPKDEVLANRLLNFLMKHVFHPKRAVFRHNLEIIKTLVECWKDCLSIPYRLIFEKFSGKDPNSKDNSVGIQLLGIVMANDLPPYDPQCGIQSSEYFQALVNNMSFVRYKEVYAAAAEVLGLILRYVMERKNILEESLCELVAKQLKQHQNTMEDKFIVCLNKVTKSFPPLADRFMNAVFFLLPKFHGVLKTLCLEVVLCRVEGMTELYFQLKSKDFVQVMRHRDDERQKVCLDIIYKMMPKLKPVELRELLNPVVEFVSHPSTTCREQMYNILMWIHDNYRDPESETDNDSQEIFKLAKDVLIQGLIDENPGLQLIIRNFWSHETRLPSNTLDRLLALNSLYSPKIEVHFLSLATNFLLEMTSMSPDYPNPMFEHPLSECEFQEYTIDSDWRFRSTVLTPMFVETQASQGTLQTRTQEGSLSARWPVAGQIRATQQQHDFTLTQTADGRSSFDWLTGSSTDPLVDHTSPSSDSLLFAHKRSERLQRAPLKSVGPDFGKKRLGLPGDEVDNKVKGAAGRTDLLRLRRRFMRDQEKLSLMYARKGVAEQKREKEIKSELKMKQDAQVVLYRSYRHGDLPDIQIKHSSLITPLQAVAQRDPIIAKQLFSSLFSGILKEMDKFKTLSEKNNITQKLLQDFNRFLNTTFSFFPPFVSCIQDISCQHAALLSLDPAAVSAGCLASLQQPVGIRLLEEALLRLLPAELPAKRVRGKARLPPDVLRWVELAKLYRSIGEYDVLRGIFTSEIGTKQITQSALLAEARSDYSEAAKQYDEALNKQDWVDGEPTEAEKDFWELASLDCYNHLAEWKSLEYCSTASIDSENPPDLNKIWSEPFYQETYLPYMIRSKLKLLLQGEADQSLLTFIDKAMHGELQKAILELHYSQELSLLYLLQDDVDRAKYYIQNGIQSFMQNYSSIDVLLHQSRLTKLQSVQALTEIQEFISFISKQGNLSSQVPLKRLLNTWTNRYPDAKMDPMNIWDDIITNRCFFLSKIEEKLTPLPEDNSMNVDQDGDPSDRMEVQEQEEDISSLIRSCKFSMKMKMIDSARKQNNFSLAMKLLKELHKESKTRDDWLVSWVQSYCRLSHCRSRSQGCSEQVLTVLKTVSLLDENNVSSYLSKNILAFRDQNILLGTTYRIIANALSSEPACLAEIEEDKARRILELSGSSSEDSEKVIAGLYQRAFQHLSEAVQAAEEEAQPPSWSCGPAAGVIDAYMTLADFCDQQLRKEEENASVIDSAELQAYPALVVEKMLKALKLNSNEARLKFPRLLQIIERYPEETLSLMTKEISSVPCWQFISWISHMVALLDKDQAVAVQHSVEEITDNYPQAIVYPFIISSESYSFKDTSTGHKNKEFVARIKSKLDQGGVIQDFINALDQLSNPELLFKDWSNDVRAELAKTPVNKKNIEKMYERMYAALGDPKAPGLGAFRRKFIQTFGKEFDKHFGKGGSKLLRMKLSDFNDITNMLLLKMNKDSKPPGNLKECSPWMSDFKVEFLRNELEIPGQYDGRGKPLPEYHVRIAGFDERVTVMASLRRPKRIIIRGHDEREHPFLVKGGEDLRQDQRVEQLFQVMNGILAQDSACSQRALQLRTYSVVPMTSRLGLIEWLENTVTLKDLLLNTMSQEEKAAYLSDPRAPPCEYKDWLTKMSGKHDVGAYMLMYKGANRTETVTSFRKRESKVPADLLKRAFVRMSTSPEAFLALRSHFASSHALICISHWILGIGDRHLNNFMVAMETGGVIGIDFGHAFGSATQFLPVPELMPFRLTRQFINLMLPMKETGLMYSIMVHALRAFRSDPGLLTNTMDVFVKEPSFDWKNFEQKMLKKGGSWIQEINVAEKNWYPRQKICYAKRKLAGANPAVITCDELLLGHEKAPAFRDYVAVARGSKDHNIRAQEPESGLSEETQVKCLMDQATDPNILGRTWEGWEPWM
Description: FIG. 14: Bio-CA associated proteins. […] After SDS-PAGE analysis and Coomassie staining, gel slices were trypsin-digested and sent to mass spectrometry analysis.
To identify cellular proteins associated with CA, a biotinylated form of the compound (Bio-CA) was used. […] The Bio-CA was used to cover streptavidin-coated magnetic beads to pull down interacting proteins from either uninfected or chronically infected lysates of cells grown in the presence or absence of CA for 48 hours (FIG. 14D). The identity of the proteins pulled down under the different conditions was determined by HPLC MS/MS analysis. The proteins were identified with a greater than 95% confidence using a proprietary Scripps proteomics software package for protein identification, statistical analysis, and mass/peptide sequence correlation. The HIV proteome was added to the proteomics software search database before analysis. Many proteins were identified in uninfected untreated and in chronically untreated samples (approximately 300), however only 53 were displaced by more than 50% by the presence of CA. Of these 53 proteins, it appears that at least 2 may have a role in HIV-1 replication: DNA-dependent protein kinase catalytic subunit (DNA-PK) and helicase like transcription factor (HLTF).

CDK11 = CDK11 (Homo sapiens, UniProt P21127); experiment: In vitro CDK11 kinase assay with 9G8 as substrate; assay type: biochemical
Chain of CDK11 (P21127 whole entry): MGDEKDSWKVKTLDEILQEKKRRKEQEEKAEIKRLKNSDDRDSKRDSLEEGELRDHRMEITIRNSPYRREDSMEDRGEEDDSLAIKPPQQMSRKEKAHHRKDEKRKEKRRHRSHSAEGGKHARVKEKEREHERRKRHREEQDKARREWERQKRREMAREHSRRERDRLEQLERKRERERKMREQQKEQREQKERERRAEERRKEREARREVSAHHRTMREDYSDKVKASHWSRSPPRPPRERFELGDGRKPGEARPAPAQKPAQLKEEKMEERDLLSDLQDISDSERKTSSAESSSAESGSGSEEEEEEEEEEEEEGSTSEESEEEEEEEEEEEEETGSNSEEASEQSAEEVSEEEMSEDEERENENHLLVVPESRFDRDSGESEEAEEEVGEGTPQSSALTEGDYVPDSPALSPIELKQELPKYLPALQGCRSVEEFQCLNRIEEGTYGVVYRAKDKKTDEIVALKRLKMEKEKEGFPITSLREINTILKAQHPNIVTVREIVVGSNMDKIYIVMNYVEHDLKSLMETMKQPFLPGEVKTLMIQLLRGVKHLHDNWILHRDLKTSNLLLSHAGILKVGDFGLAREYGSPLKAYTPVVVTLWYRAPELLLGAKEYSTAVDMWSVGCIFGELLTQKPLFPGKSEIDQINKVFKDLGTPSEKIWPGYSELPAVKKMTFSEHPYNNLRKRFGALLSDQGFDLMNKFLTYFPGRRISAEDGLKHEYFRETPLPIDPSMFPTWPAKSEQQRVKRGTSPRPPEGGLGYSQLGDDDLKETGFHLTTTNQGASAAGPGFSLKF
Description: To the mixture, 100 μM of ATP and 5 μCi of γ-^32P-ATP (3000 Ci/mmol 10 mCi/ml) were added to a final volume of 30 μl in kinase buffer. Following 30 min at 30° C., the reaction was terminated by addition of 6 μl of 6× SDS loading buffer. After boiling for 10 min, proteins were separated by SDS-PAGE. The gel was dried and visualized by autoradiography.

NF-kB reporter construct = experiment: TNF-α activation of NF-kB luciferase reporter in TE671 cells; assay type: cell-based
Description: FIG. 8B: TE671 cells were transfected with an NF-kB luciferase reporter plasmid. The following day cells were treated with TNF-α in presence or absence of dCA. Cells were lysed 5 hours later and Luciferase activity was measured as in FIG. 8A.
TE671 cells were plated at 6.25×10^4 per well in a 24-well plate. Cells were transfected twenty-four hours later with either 200 ng or 400 ng of NF-kB-Luc (Promega, Cat No. E8491) using Fugene 6 (Roche) per manufacturer's instruction. […] Cells were lysed 5 hours later with 1× Lysis Buffer and luciferase activity was measured using the luciferase Assay System (Promega) on a Berthhold luminometer. Protein concentration was determined by Bradford assay. Results corresponding to the adjustment of the luciferase activity per protein concentration of each sample are shown as Relative light units (RLU). Experiments were performed in triplicate.

CN(C)[C@H]1C[C@@]23CC[C@@]4(O2)C(=CC[C@]2(C)C(c5ccc6ccncc6c5)=CC[C@H]24)C=C3[C@@H](O)[C@@H]1O [dCA, didehydro-Cortistatin A]
interaction with TAR-nonbinding basic region Tat mutant (pull-down) [1]: not | interaction with DNA-PK [2]: interaction | in vitro CDK11 kinase activity (CDK11): unable to block; also recorded: did not inhibit | TNFα activation of an NF-κB reporter construct (NF-kB reporter construct): no effect
